Laboratory results as given in PubChem BioAssay (NCI).
Several values for one entry are separate records, joined by “and”; a condition that tells them apart may be missing. Identical values can stand only once.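 Five compound concentrations were applied to cells in 96-well plates for 48 hours; endpoints were derived by simple linear interpolation of the resulting dose-response curve. GI50 is the concentration that inhibits growth by half. Definition used: TGI = concentration required for complete inhibition of growth.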

Assays:
Assay in all cases: NCI tumour cell line growth inhibition, 48 h
SW-620 colon = system: SW-620 colon
MALME-3M melanoma = system: MALME-3M melanoma
RXF 393 renal = system: RXF 393 renal
UACC-62 melanoma = system: UACC-62 melanoma
K-562 leukemia = system: K-562 leukemia
A498 renal = system: A498 renal
OVCAR-5 ovarian = system: OVCAR-5 ovarian
PC-3 prostate = system: PC-3 prostate
MDA-MB-435 = system: MDA-MB-435
TK-10 renal = system: TK-10 renal

SMILES	TGI (SW-620 colon) [µM]	TGI (MALME-3M melanoma)	TGI (RXF 393 renal) [µM]	TGI (UACC-62 melanoma) [µM]	TGI (K-562 leukemia) [µM]	TGI (A498 renal)	TGI (OVCAR-5 ovarian) [µM]	TGI (PC-3 prostate)	TGI (MDA-MB-435)	TGI (TK-10 renal) [µM]	GI50 (PC-3 prostate)	GI50 (MALME-3M melanoma)	GI50 (MDA-MB-435) [nM]	GI50 (TK-10 renal)	GI50 (SW-620 colon) [nM]	GI50 (RXF 393 renal) [nM]	GI50 (K-562 leukemia) [nM]	GI50 (A498 renal) [nM]	GI50 (OVCAR-5 ovarian) [nM]	GI50 (UACC-62 melanoma) [nM]
Cc1c2c(cc3c1[nH]c1ccccc13)C(c1ccc(F)cc1)=NCC2	5.46	4.91 µM	4.32	2.77	5.93	4.73 µM	9.62	–	–	–	–	–	–	–	–	–	–	–	–	–
O=C1c2ccccc2-c2ccc(O)cc21	> 100	49.2 µM	32.9	30.9	94.7	41.8 µM	68.5	42.9 µM	59.6 µM	49.5	–	–	–	–	–	–	–	–	–	–
C[N+]1(C)C2CCC1CC(OC(=O)C(CO)c1ccccc1)C2 (centres undefined)	> 100	> 100 µM	> 100	> 100	> 100	> 100 µM	> 100	> 100 µM	> 100 µM	> 100	–	–	–	–	–	–	–	–	–	–
CCC(C)C(NC(=O)C(CCCCN)NC(=O)C(NC(=O)C(CCC(N)=O)NC(=O)C(CCCNC(=N)N)NC(C)=O)C(C)CC)C(=O)NC(Cc1c[nH]c2ccccc12)C(=O)NC(Cc1ccccc1)C(=O)NC(CCC(N)=O)C(=O)NC(CC(N)=O)C(=O)NC(CCCNC(=N)N)C(=O)NC(CCCNC(=N)N)C(=O)NC(CCSC)C(=O)NC(CCCCN)C(=O)NC(Cc1c[nH]c2ccccc12)C(=O)NC(CCCCN)C(=O)NC(CCCCN)C(N)=O (centres undefined)	> 50	> 50 µM	> 50	> 50	> 50	> 50 µM	22.5	> 50 µM	> 50 µM	> 50	–	–	–	–	–	–	–	–	–	–
Cc1c(N)nc([C@H](CC(N)=O)NC[C@H](N)C(N)=O)nc1C(=O)N[C@H](C(=O)N[C@H](C)[C@@H](O)[C@H](C)C(=O)N[C@H](C(=O)NCCc1nc(-c2nc(C(=O)NCCC[S+](C)C)cs2)cs1)[C@@H](C)O)C(OC1OC(CO)C(O)C(O)C1OC1OC(CO)C(O)C(OC(N)=O)C1O)c1cnc[nH]1 (some centres undefined)	–	9.03 µM and 22.9 µM and 20.7 µM	–	–	–	19.6 µM and 29 µM and 41.5 µM	–	25 µM and > 100 µM	25 µM and > 100 µM	–	2630 nM and 5220 nM	750 nM and 1650 nM	25300	2360 nM and 20400 nM	–	–	–	–	–	–
N#CCc1[nH]nc2nc(SCc3ccccc3)nc(N3CCCCC3)c12	35	41.8 µM	32.2	–	34.6	73.4 µM	36	34 µM	35 µM	40.5	–	–	–	–	–	–	–	–	–	–
O=C1CS(=O)(=O)C(c2cccc(Oc3ccccc3)c2)N1c1cccc(Cl)c1Cl (centres undefined)	> 100	59.5 µM	66.9	30.7	46	–	> 100	89.9 µM	48.8 µM	67.3	–	–	–	–	–	–	–	–	–	–
S=C(NCCCCCCNC(=S)Nc1c2ccccc2nc2ccccc12)Nc1c2ccccc2nc2ccccc12	> 100	> 100 µM	> 100	> 100	> 100	> 100 µM	> 100	–	–	–	–	–	–	–	–	–	–	–	–	–
CCn1cc(C(=O)O)c(=O)c2cc(F)c(N3CCN(Cn4c(O)c(N=NC(=O)c5ccncc5)c5cc(Cl)ccc54)CC3)cc21	> 100	> 100 µM	51.3	> 100	> 100	> 100 µM	> 100	> 100 µM	> 100 µM	71.3	–	–	–	–	–	–	–	–	–	–
CN1CCN(CCCOc2ccc3ncnc(Nc4ccc(Oc5cccc(C(F)(F)F)c5)c(Cl)c4)c3c2)CC1	3.45	2.89 µM	2.93	–	4	3.23 µM	3.46	3.91 µM	3.09 µM	3.09	1710 nM	1500 nM	1530	1500 nM	1760	1490	1170	1420	1700	–
O=c1c2c([nH]c3nccn13)CCCC2	> 10	> 10 µM	> 10	> 10	–	> 10 µM	> 10	> 10 µM	> 10 µM	> 10	–	–	–	–	–	–	–	–	–	–
COC1CCC(OS(C)(=O)=O)CO1 (centres undefined)	–	> 100 µM	> 100	> 100	> 100	> 100 µM	> 100	–	–	–	–	–	–	–	–	–	–	–	–	–
OC(c1ccc(-c2ccccc2)cc1)(c1ccc(-c2ccccc2)cc1)c1ccc(-c2ccccc2)cc1	–	–	> 100	> 100	> 100	–	> 100	> 100 µM	> 100 µM	> 100	–	–	–	–	–	–	–	–	–	–
C=C1C(C2(C)C=CC(=O)OC3(C)COC(=O)CC32)C(OC=O)C(OC(=O)C(O)C(C)CC)C2(C)C(c3ccoc3)CC(OC(C)=O)C12O (centres undefined)	> 100	–	> 100	> 100	> 100	> 100 µM	> 100	> 100 µM	> 100 µM	> 100	–	–	–	–	–	–	–	–	–	–
C=CCOCCCC(=O)C(=[N+]=[N-])C(=O)OC	> 100	> 100 µM	> 100	> 100	> 100	> 100 µM	> 100	–	–	> 100	–	–	–	–	–	–	–	–	–	–
O=C1c2scnc2-c2nccc3c2c1nc1ccccc13	–	1.51 µM	3.98	1.45	> 100	2.52 µM	> 24.8	> 100 µM	0.307 µM	–	–	–	–	–	–	–	–	–	–	–

SMILES	TGI (SW-620 colon) [µM]	TGI (MALME-3M melanoma)	TGI (RXF 393 renal) [µM]	TGI (UACC-62 melanoma) [µM]	TGI (K-562 leukemia) [µM]	TGI (A498 renal)	TGI (OVCAR-5 ovarian) [µM]	TGI (PC-3 prostate)	TGI (MDA-MB-435)	TGI (TK-10 renal) [µM]	GI50 (PC-3 prostate)	GI50 (MALME-3M melanoma)	GI50 (MDA-MB-435) [nM]	GI50 (TK-10 renal)	GI50 (SW-620 colon) [nM]	GI50 (RXF 393 renal) [nM]	GI50 (K-562 leukemia) [nM]	GI50 (A498 renal) [nM]	GI50 (OVCAR-5 ovarian) [nM]	GI50 (UACC-62 melanoma) [nM]
CO[C@@]12C[C@@H](CNC(=O)c3cc(Br)c[nH]3)O[C@@H]1NC(=O)N2	> 100	> 100 µM	> 100	> 100	–	> 100 µM	> 100	> 100 µM	> 100 µM	> 100	–	–	–	–	–	–	–	–	–	–
COc1ccc(/C=c2/[nH]c(=O)/c(=C\c3ccc(OCc4ccccc4)cn3)[nH]c2=O)cc1	> 100	> 100 µM	83.5	> 100	> 100	> 100 µM	> 100	> 100 µM	> 100 µM	> 100	–	–	–	–	–	–	–	–	–	–
CN(C)CCNc1c([N+](=O)[O-])cc2c3c(cccc13)C(=O)N(CCN(C)C)C2=O	5.59	2.28 µM	3.69	3.35	4.51	4.34 µM	4.96	–	–	–	–	–	–	–	–	–	–	–	–	–
O=C(O)C(Cc1ccccc1)N1C(=O)c2ccccc2C1=O (centres undefined)	84.9	> 100 µM	> 100	> 100	> 100	> 100 µM	> 100	> 100 µM	> 100 µM	> 100	–	–	–	–	–	–	–	–	–	–
CC(=O)OCCC[C@@H]1C(=C(C)C)CCC2[C@@]1(C)CC[C@@]1(C)C[C@](C)(CCC=C(C)C)CC[C@]21C (some centres undefined)	> 100	> 100 µM	–	> 100	–	> 100 µM	> 100	> 100 µM	> 100 µM	0.0632	–	–	–	–	–	–	–	–	–	–
CCN(CC)/C(=C\Cl)Nc1ccccn1	> 100	> 100 µM	> 100	> 100	> 100	> 100 µM	> 100	–	–	> 100	–	–	–	–	–	–	–	–	–	–
OC1C=C2C3CN(Cc4cc5c(cc43)OCO5)[C@H]2C[C@@H]1O (some centres undefined)	> 100	> 100 µM	21.4	68.4	> 100	39.9 µM	73.3	22.6 µM	24.7 µM	39.3	–	–	–	–	–	–	–	–	–	–
O=C1CC(N2C(=O)/C(=C/C(Cl)=C\c3ccc([N+](=O)[O-])cc3)SC2=S)C(=O)N1c1ccc(Cl)cc1 (centres undefined)	3.89	11.6 µM	2.72	4.3	11.6	–	–	4.15 µM	3.39 µM	8.63	1340 nM	3090 nM	1650	2790 nM	508	1260	692	–	–	1770
O=C1CCC(NC(=O)Cc2ccc(O)cc2)C(=O)N1 (centres undefined)	> 2500	–	–	> 2500	–	> 2500 µM	> 2500	–	–	> 2500	–	–	–	–	–	–	–	–	–	–
O=C(NN1C(=O)/C(=C/c2ccc(Cl)cc2)N=C1c1ccccc1)c1c(Cl)c(Cl)c(Cl)c(Cl)c1-c1nc2ccccc2[nH]1	> 100	54.6 µM	–	30.9	50	44.5 µM	> 100	> 100 µM	11.6 µM	–	–	–	–	–	–	–	–	–	–	–
CC(=O)C1(c2ccccc2)CCCN(C)CC1 (centres undefined)	> 100	> 100 µM	–	> 100	–	> 100 µM	> 100	> 100 µM	> 100 µM	> 100	–	–	–	–	–	–	–	–	–	–
COc1ccc(OC)c2sc(N3C(=O)/C(=C/c4ccccc4S)N=C3c3ccccc3)nc12	> 100	–	58.5	52.2	> 100	> 100 µM	> 100	56.5 µM	52 µM	> 100	–	–	–	–	–	–	–	–	–	–
O=C1CC(n2cccc2)c2cc(Br)sc21 (centres undefined)	> 100	> 100 µM	–	> 100	> 100	> 100 µM	> 100	> 100 µM	> 100 µM	> 100	–	–	–	–	–	–	–	–	–	–
CC(=O)C1=C(O)C2(O)C(=O)c3c(c(C)c4ccc(C)c(O)c4c3O)CC2C(N)C1=O (centres undefined)	23.6	4.74 µM	20	5.25	12.2	8.45 µM	14	11.7 µM	4.86 µM	8.86	754 nM	–	1110	–	–	–	–	–	–	–
Cc1nc(Cl)c(C)c(Cl)n1	> 100	> 100 µM	> 100	> 100	> 91.9	> 100 µM	> 100	> 100 µM	> 100 µM	> 100	–	–	–	–	–	–	–	–	–	–
